Where two headings read alike, the source gives them in different places.
What was measured:
[1] = target: T1, recombinant human STIM1 and Orai1 (Homo sapiens, UniProt Q96D31); assay: Fluorescence-based assay of store-operated calcium entry in Orai1/STIM1 stable cells (FLIPR); type: cell-based; conditions: for IC50: HEK-293 cells stably expressing human Orai1/STIM1, Fluo-4, Peak-Basal signal, read-out: FLIPR_CRAC: 9 point CRC: O1S1_JR251: IC50: Peak_over_Basal; for FLIPR_CRAC: 9 point CRC: O1S1_JR251: efficacy: printed in the IC50 column in place of a class symbol
T1 construct: c-myc (C); expressed in transfected cells; host or cells: HEK-293 cells stably expressing human STIM1 and human Orai1
Experimental: A. Fluorescence-Based Assay of Store-Operated Calcium Entry in Orai1/Stim1 Stable Cells.
Cells stably expressing recombinant human STIM1 and Orai1 are generated by transfecting a human Orai1 expression plasmid (pcDNA3.1-Orai1-cmyc) into HEK-293 cells stably overexpressing human STIM1 (Roos et al. 2005 JCB 169(3): 435-445). Colonies of cells stably expressing both STIM1 and Orai1 proteins are selected and then subcloned by limiting dilution. Cells were cultured at 37° C./6% CO2 in complete medium with 10% FBS and appropriate selection markers.
The day prior to performing the assay Orai1/STIM1 stable cells are plated in 50 μL of complete medium at 90-95% confluence in a 384 well plate. Cells are grown at 37° C./6% CO2 overnight. On the day of the assay, 1.5 μM fluo-4-AM (Invitrogen) in complete medium is added to the cells, which are then incubated for 1 hour at RT. Cells are washed once in Ca^2+-free HBSS (Hank's buffered saline solution) and 35 μl of Ca^2+-free HBSS is added to each well. Test compounds are added to wells in a 10 μL Ca^2+-free HBSS solution, prepared at 4.5× the desired final concentration, and incubated for 30 minutes at RT. The initial baseline fluorescence signal is then measured with a FLIPR^384 (Molecular Devices) plate reader. Calcium entry is initiated by adding 5 μl of 10×CaCl2 (10 mM) in HBSS, and changes in cellular fluorescence are measured with the FLIPR^384 plate reader. In each well, the magnitude of the fluorescence signal as a result of calcium entry into the cell is determined by calculating the difference between the peak fluorescence signal measured after calcium addition and the initial baseline fluorescence signal (designated Peak-Basal). IC50 values are typically calculated as the concentration that inhibited 50% of the Peak-Basal signal.

[2] = test system: secreted IL-2 in Jurkat T cells; assay: In vitro assay of cytokine (IL-2) release from T cells; type: cell-based; conditions: Jurkat E6-1 cells; PHA/TPA stimulation 20 hours; IL-2 ELISA
Experimental: In Vitro Assay of Cytokine Release from T Cells
Jurkat E6-1 cells are obtained from ATCC and maintained in complete medium with 10% FBS at 37° C./6% CO2.
The day prior to performing the assay, Jurkat T cells are plated in 90 μL of HBSS Buffer with 1.8 mM CaCl2 and 1.75% fetal bovine serum (FBS) in a 96 well plate at a density of 1.5×10^5 cells/well for 3 hours. 10 μl of 10× test compound prepared in HBSS is added and incubated for 10 minutes at 37° C./6% CO2. Cells are stimulated by the addition of 10 μl of 11×PHA/TPA (27.5 μg/mL PHA/880 nM TPA) and incubated at 37° C./6% CO2 for 20 hours. On the following day, the supernatants are collected and assayed for IL-2 levels by ELISA according to the manufacturer's protocols. The IC50 value is calculated as the concentration at which 50% of secreted IL-2 in vehicle treated cells is inhibited.

RBL-2H3 cells = assay: Fluorescence-based assay of store-operated calcium entry in RBL-2H3 cells (FLIPR, thapsigargin); type: cell-based, rat; conditions: Fluo-4, Upslope 0-7 sec, read-out: FLIPR_CRAC: 9 pt CRC - Fluo4_TG-D: RBL-2H3: IC50: Upslope 0-7 sec
Experimental: B. Fluorescence-Based Assay of Store-Operated Calcium Entry in RBL-2H3 Cells.
RBL-2H3 cells are obtained from ATCC and maintained in complete medium with 10% FBS at 37° C./6% CO2.
The day prior to performing the assay, RBL-2H3 cells are plated in 50 μl of complete medium in a 384 well plate. Cells are grown at 37° C./6% CO2 overnight and grow to 50-60% confluence by the next day. On the assay day, 1.5 μM Fluo-4-AM dye (Invitrogen) in complete medium is added and incubated for 1 hour at RT. Cells are washed twice in Ca^2+-free HBSS buffer and 35 μl Ca^2+-free HBSS buffer is added to each well. 10 μl of a test compound prepared in a Ca^2+-free HBSS solution at 4.5× of the desired concentration is added to a well and incubated for 5 minutes at RT. 10 μl of thapsigargin prepared in a Ca^2+-free HBSS solution at 5.5× of the desired concentration (5.5 uM) is added to each well and incubated for an additional 25 minutes. The initial baseline fluorescence signal is measured with a FLIPR^384 (Molecular Devices) plate reader. 5 μl of 12× calcium in HBSS (12 mM) is added and changes in cellular fluorescence are measured with the FLIPR^384 plate reader. In each well, the change in the fluorescent signal as a function of time due to calcium entry into the cell is determined by calculating the difference between the fluorescent signal measured 7 seconds after calcium addition and the initial baseline fluorescence signal at time zero (t=0). This parameter is designated Upslope. The IC50 value is calculated as the concentration at which 50% of the Upslope is inhibited.

T1 sequence (Q96D31 whole entry): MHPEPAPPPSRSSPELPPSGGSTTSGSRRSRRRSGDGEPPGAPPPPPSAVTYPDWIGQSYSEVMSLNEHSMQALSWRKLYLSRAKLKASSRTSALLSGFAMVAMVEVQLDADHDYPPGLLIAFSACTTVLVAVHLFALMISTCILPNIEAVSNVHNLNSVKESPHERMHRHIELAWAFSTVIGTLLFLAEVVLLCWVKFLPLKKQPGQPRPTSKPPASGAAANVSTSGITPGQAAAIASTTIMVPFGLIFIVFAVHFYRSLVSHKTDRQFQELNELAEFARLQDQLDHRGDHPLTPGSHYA

Molecule | IC50 [1] | IC50 (RBL-2H3 cells; Rattus norvegicus) | FLIPR_CRAC: 9 point CRC: O1S1_JR251: efficacy [1] | IC50 [2] | IC50 (RBL-2H3 cells)
Cc1nc(-c2cc(-c3cnc(NC(=O)c4ccccc4Cl)s3)n(C)n2)no1 [Example 48] | < 600 nM |  |  | > 100 nM | 600 to 1200 nM
Cc1nc(-c2cc(-c3cnc(NC(=O)c4ccccc4Cl)s3)n(C)n2)no1 [Example 18, (2-chlorophenyl)-N-{5-[1-methyl-3-(5-methyl(1,2,4,-oxadiazol-3-yl))pyrazol-5-yl](1,3-thiazol-2-yl)}carboxamide] | > 1200 nM |  |  |  | 
Cc1cc2c(cc1-c1cnc(NC(=O)c3c(F)cncc3F)s1)OC(F)(F)O2 [Example 81, (3,5-difluoro(4-pyridyl))-N-[5-(2,2-difluoro-6-methylbenzo[d]1,3-dioxolen-5-yl)(1,3-thiazol-2-yl)]carboxamide] | > 1200 nM | < 600 nM |  |  | 
Cn1nc(-c2nccs2)cc1-c1ccc(C(=O)Nc2c(F)cccc2F)s1 [Example 49, (2,6-difluorophenyl)[5-(1-methyl-3-(1,3-thiazol-2-yl)pyrazol-5-yl](2-thienyl)]carboxamide] | < 600 nM | < 600 nM |  |  | 
(2,6-difluorophenyl-N-{5-[2-(fluorophenyl)-1-methylpyrazol-5-yl](1,3-thiazol-2-yl)]carboxamide [Example 69] | 600 to 1200 nM |  |  |  | < 600 nM
Cc1cc2c(cc1-c1ccc(NC(=O)c3ccccc3F)s1)OC(F)(F)O2 [Example 79, N-[5-(2,2-difluoro-6-methylbenzo[d]1,3-dioxolen-5-yl)(2-thienyl)](2-fluorophenyl)carboxamide] | > 1200 nM | 600 to 1200 nM |  |  | 
Cc1nc(-c2cc(-c3ccc(C(=O)Nc4ccccc4F)s3)n(C)n2)no1 [Example 17, N-(2-fluorophenyl){5-[1-methyl-3-(5-methyl(1,2,4-oxadiazol-3-yl))pyrazol-5-yl](2-thienyl)}carboxamide] | 600 to 1200 nM | < 600 nM |  |  | 
Cc1cc2c(cc1-c1ccc(NC(=O)c3c(F)cccc3F)s1)OC(F)(F)O2 [Example 80, N-[5-(2,2-difluoro-6-methylbenzo[d]1,3-dioxolen-5-yl)(2-thienyl)](2,6-difluorophenyl)carboxamide] | > 1200 nM | < 600 nM |  |  | 
Cc1cc2cn(C)nc2cc1-c1ccc(C(=O)Nc2c(F)cccc2F)s1 [Example 15] | 600 to 1200 nM |  |  |  | 
Cn1nc(-c2cccs2)cc1-c1ccc(C(=O)Nc2ccccc2Cl)s1 [Example 65] | > 1200 nM |  |  |  | 
Cn1nc(-c2cccs2)cc1-c1ccc(C(=O)Nc2c(F)cccc2F)s1 [Example 63, N-(2,6-difluorophenyl)[5-(1-methyl-3-(2-thienyl)pyrazol-5-yl](2-thienyl)]carboxamide] | > 1200 nM |  |  |  | 
Cc1cc2cnn(C)c2cc1-c1ccc(C(=O)Nc2ccccc2F)s1 [Example 12] | 600 to 1200 nM | < 600 nM |  |  | 
Cc1cc2cn(C)nc2cc1-c1ccc(C(=O)Nc2ccccc2Cl)s1 [Example 14] | 600 to 1200 nM | < 600 nM |  |  | 
O=C(Nc1ccccc1Cl)c1ccc(-c2cc3scnc3cc2Cl)s1 [Example 8, N-(2-chlorophenyl)[5-(5-chlorobenzothiazol-6-yl)(2-thienyl)]carboxamide] | 600 to 1200 nM | < 600 nM |  |  | 

The next lines start with results.

IC50 [1] | IC50 (RBL-2H3 cells; Rattus norvegicus) | FLIPR_CRAC: 9 point CRC: O1S1_JR251: efficacy [1] | Molecule | IC50 [2] | IC50 (RBL-2H3 cells)
600 to 1200 nM |  |  | Cc1nc(-c2cc(-c3ccc(C(=O)Nc4c(F)cccc4F)s3)n(C)n2)no1 [Example 16, N-(2,6-difluorophenyl){5-[1-methyl-3-(5-methyl(1,2,4-oxadiazol-3-yl))pyrazol-5-yl](2-thienyl)}carboxamide] |  | 
> 1200 nM | > 1200 nM |  | Cn1nc(C(F)(F)F)cc1-c1ncc(NC(=O)c2ccccc2Cl)s1 [Example 29, (2-chlorophenyl)-N-{2-[1-methyl-3-(trifluoromethyl)pyrazol-5-yl](1,3-thiazol-5-yl)}carboxamide] |  | 
600 to 1200 nM | 600 to 1200 nM |  | Cn1nc(-c2ccccc2)cc1-c1ccc(C(=O)Nc2ncccc2F)s1 [Example 45] |  | 
600 to 1200 nM | < 600 nM |  | Cn1nc(C(F)(F)F)cc1-c1ccc(NC(=O)c2c(F)cncc2F)s1 [Example 77, (3,5-difluoro(4-pyridyl))-N-{5-[1-methyl-3-(trifluoromethyl)pyrazol-5-yl](2-thienyl)}carboxamide] |  | 
< 600 nM | < 600 nM |  | Cn1nc(C(F)(F)F)cc1-c1cnc(NC(=O)c2ccncc2F)s1 [Example 76] |  | 
> 1200 nM | 600 to 1200 nM |  | Cn1nc(C(F)(F)F)cc1-c1cnc(NC(=O)c2c(F)cncc2F)s1 [Example 78] |  | 
 |  | <50% efficacy | Cc1cccnc1C(=O)Nc1ncc(-c2cc(C(F)(F)F)nn2C)s1 [Example 26, (3-methyl(2-pyridyl))-N-{5-[1-methyl-3-(trifluoromethyl)pyrazol-5-yl](1,3-thiazol-2-yl)}carboxamide] |  | < 600 nM
> 1200 nM |  |  | Cn1nc(C(F)(F)F)cc1-c1sc(C(=O)Nc2c(F)cccc2F)cc1N [Example 30, {4-Amino-5-[1-methyl-3-(trifluoromethyl)pyrazol-5-yl](2-thienyl)}-N-(2,6-difluorophenyl)carboxamide] |  | 
> 1200 nM | 600 to 1200 nM |  | CC(C)n1nc(C(F)(F)F)cc1-c1cnc(NC(=O)c2ccccc2Cl)s1 [Example 25, (2-chlorophenyl)-N-{5-[1-(methylethyl)-3-(trifluoromethyl)pyrazol-5-yl](1,3-thiazol-2-yl)}carboxamide] |  | 
< 600 nM | < 600 nM |  | Cn1nc(C(F)(F)F)cc1-c1ccc(NC(=O)c2ccccc2F)s1 [Example 71, (2-fluorophenyl)-N-{5-[1-methyl-3-(trifluoromethyl)pyrazol-5-yl](2-thienyl)}carboxamide] |  | 
 | > 1200 nM | <50% efficacy | Cn1nc(C(F)(F)F)cc1-c1ccc(NC(=O)c2ccncc2F)s1 [Example 75, (3-fluoro(4-pyridyl))-N-{5-[1-methyl-3-(trifluoromethyl)pyrazol-5-yl](2-thienyl)}carboxamide] |  | 
600 to 1200 nM | < 600 nM |  | Cn1nc(-c2nccs2)cc1-c1ccc(C(=O)Nc2c(F)cncc2F)s1 [Example 50] |  | 
600 to 1200 nM | 600 to 1200 nM |  | Cn1nc(C(F)(F)F)cc1-c1cnc(NC(=O)c2ccc(Cl)cc2)s1 [Example 73] |  | 
600 to 1200 nM | 600 to 1200 nM |  | Cn1nc(-c2nccs2)cc1-c1ccc(C(=O)Nc2ncccc2F)s1 [Example 52] |  | 
> 1200 nM | < 600 nM |  | Cn1c(-c2cnc(NC(=O)c3ccccc3Cl)s2)cc2ccccc21 [Example 22, (2-chlorophenyl)-N-[5-(1-methylindol-2-yl)(1,3-thiazol-2-yl)]carboxamide] |  | 
